Holding throughout (experiment): inhibition of tumour cell growth, NCI panel, 48 h
Experiment [1] has as its system MDA-MB-435.
The subject of experiment [2] is HCC-2998 colon.
Experiment [3] has as its system T-47D breast.
Experiment [4] relates to MOLT-4 leukemia.
Experiment [5] has as its system MCF7 breast.
The subject of experiment [6] is HOP-92 NSCLC.
The subject of experiment [7] is HL-60(TB) leukemia.
The subject of experiment [8] is A498 renal.
Experiment [9] deals with DU-145 prostate.

“And” between values parts separate entries of the source, which are not always exact repeats. Equal entries are not always repeated.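 Results reflect a 48-hour exposure of cells in 96-well plates to compound at five concentrations. The concentration for 50% growth inhibition is given as GI50. TGI denotes the concentration required for complete inhibition of growth.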 Where a SMILES comes first, the peptide text is derived from it. [ ]: non-standard residue; d: D form. The star is where a group is joined. Phe(4-NO2) = N[CH](Cc1ccc([N+](=O)[O-])cc1)C(=O)O; Palmitoyl = CCCCCCCCCCCCCCCC(=O)*; Boc = CC(C)(C)OC(=O)*; OtBu = CC(C)(C)O* Some results are limits rather than exact numbers.

Turning to `CN1C(=O)[C@@]2(C=CC3(CC2)OCCO3)c2ccccc21`, the TGI in experiment [1], in experiment [2], in experiment [3], in [4], in [5] and in experiment [6] was greater than 50 µM throughout. Moreover, the TGI in experiment [7], in experiment [8] and in [9] was greater than 50 µM in each case.
For `Cn1c(=O)c2[nH]c(N/N=C3/SCC(=O)N3Cc3ccccc3)nc2n(C)c1=O`, the TGI in experiment [1] is 50.1 µM; in experiment [2], greater than 100 µM; in experiment [3], greater than 100 µM; in experiment [4], greater than 100 µM; in experiment [5] it was 45.8 µM; in experiment [6], 87.7 µM. Besides, the TGI in [7], in experiment [8] and in experiment [9] was greater than 100 µM throughout.
With `COc1cc(/C=C2\C[C@H]3[C@@H]4CC=C5C[C@@H](N6CCCC6)CC[C@]5(C)[C@H]4CC[C@]3(C)[C@H]2OC(C)=O)cc(OC)c1OC`, the TGI in experiment [1] was determined as 26.8 µM; in [2], 10.4 µM; in experiment [3] it was 44.8 µM; in experiment [4], 22.5 µM; in experiment [5], 29.8 µM; in experiment [6] it was 22.3 µM. Moreover, the results for the TGI in [7], in [8] and in experiment [9] were 65.7 µM, 28.7 µM and 32.9 µM, respectively.
As for `COc1cc(C2S/C(=C/c3ccccc3)C(=O)N2c2ccc(Cl)cc2)cc(OC)c1OC` (stereo not drawn), the TGI in [1] is 24.8 µM; in [2], greater than 100 µM; in experiment [3], greater than 25.6 µM; in experiment [4], greater than 81.5 µM; in [5], greater than 100 µM; in experiment [6], greater than 52 µM. For the same molecule, the TGI in experiment [7] is 85 µM; in experiment [8], greater than 100 µM; in experiment [9], greater than 100 µM.
Turning to `CC1=CC(c2ccccc2)n2c(nc3cc4ccccc4cc32)N1` (stereo not drawn), the TGI in experiment [1], in experiment [2], in experiment [3], in experiment [4], in [5] and in experiment [6] was greater than 100 µM each time. Further, the TGI in experiment [7], in experiment [8] and in experiment [9] was greater than 100 µM in each case.
On to `CSc1nc(Br)nc2c1ncn2C1CC(Oc2ccc(C)cc2)C(COc2ccc(C)cc2)O1` (stereo not drawn), for which the TGI in experiment [1], in experiment [2], in experiment [3], in experiment [4], in [5] and in [6] was greater than 100 µM each time. Also, the TGI in [7], in [8] and in experiment [9] was greater than 100 µM in each case.
Regarding `COc1ccc([C@@]23CCC(=O)C[C@@H]2N(C)CC3)cc1OC`, the TGI in experiment [1], in [2], in [3], in experiment [4], in experiment [5] and in experiment [6] was greater than 100 µM in each case. Further, the TGI in [7], in experiment [8] and in experiment [9] was greater than 100 µM in each case.
On to `CCOC(=O)Cc1nc2c(=O)[nH]cnc2n1C1OC(COC(C)=O)C(OC(C)=O)C1OC(C)=O` (stereo not drawn), for which the TGI in experiment [1], in experiment [2], in experiment [3], in experiment [4], in experiment [5] and in experiment [6] was greater than 100 µM each time. Besides, the TGI in experiment [7], in experiment [8] and in experiment [9] was greater than 100 µM throughout.
For `CN(Cc1nc2c(N)nc(N)nc2nc1N)c1ccc(C(=O)NC(CCC(=O)O)C(=O)O)cc1` (stereo not drawn), the TGI in experiment [1], in [2], in experiment [3], in experiment [4], in [5] and in experiment [6] was greater than 100 µM throughout. Besides, the TGI in experiment [7], in experiment [8] and in experiment [9] was greater than 100 µM throughout.
For the molecule `COC(=O)C(Cc1ccc([N+](=O)[O-])cc1)NC(=O)C(CC(=O)OC(C)(C)C)NC(=O)OC(C)(C)C` (stereo not drawn) (Boc-Asp(OtBu)-[Phe(4-NO2)]-OMe; configuration not given here), the TGI in experiment [1], in experiment [2], in [3], in experiment [4], in experiment [5] and in [6] was greater than 100 µM throughout. Moreover, the TGI in experiment [7], in [8] and in experiment [9] was greater than 100 µM in each case.
For the molecule `O=C(O)c1ccc(Nc2cnc3ccc(C(F)(F)F)cc3n2)cc1`, the TGI is 72.3 µM in [1]; 19.6 µM in experiment [2]; 17.9 µM in experiment [3]; 44.5 µM in experiment [4]; greater than 100 µM in experiment [5]; 38.9 µM in experiment [6]. The figures for the TGI in experiment [7], in experiment [8] and in experiment [9] were 20.7 µM, 42.9 µM and 69.5 µM, respectively.
On to `N#Cc1nnc2c3c(-c4ccc(Cl)cc4)c(C#N)c(=O)[nH]c3nn2c1N`, for which the TGI in [1] turned out to be 26.8 µM; in experiment [2], 12.7 µM; in experiment [3] it was 3.97 µM; in experiment [4], 14.1 µM; in experiment [5], 16.3 µM; in experiment [6], 27.9 µM. The results for the TGI in experiment [7], in experiment [8] and in experiment [9] were greater than 100 µM, 10.9 µM and 16.8 µM, respectively.
As to `CCCCCCCCCCCCCCCC(=O)NC(CCCCN)C(=O)NCC(=O)NC(Cc1ccccc1)C(=O)N1CCCC1C(=O)NC(CO)C(=O)NC(Cc1ccc(O)cc1)C(=O)NC(CCCCN)C(=O)NC(CC(C)C)C(=O)NC(CCCN=C(N)N)C(=O)N1CCCC1C(=O)NCC(N)=O` (stereo not drawn) (Palmitoyl-KGFPSYKLRPG-NH2; configuration not given here), the GI50 is 19 µM in experiment [1]; 17.1 µM in experiment [2]; 18 µM in experiment [3]; 16.5 µM in experiment [4]; 21.1 µM in [5]; 19.3 µM in experiment [6]. In addition, the GI50 is 19.1 µM in experiment [7], 34.2 µM in experiment [8] and 20.2 µM in [9]. Besides, the TGI in experiment [1] was 50.8 µM; in experiment [2] it was 35.2 µM; in experiment [3], 45.2 µM; in experiment [4], 32.7 µM; in [5], 44 µM; in experiment [6], 45.4 µM. In addition, the TGI in experiment [7] was 39.9 µM; in experiment [8], greater than 100 µM; in experiment [9], 49.4 µM.
With `OCc1ccccc1OC1OC(CO)C(O)C(O)C1O` (stereo not drawn), the TGI in experiment [1], in experiment [2], in experiment [3], in [4], in experiment [5] and in experiment [6] was greater than 100 µM throughout. In addition, the TGI in experiment [7], in [8] and in [9] was greater than 100 µM in each case.
Regarding `O=C(NCCCCl)c1c(O)c2ccccc2[nH]c1=O`, the TGI in [1] is greater than 100 µM; in experiment [2], greater than 100 µM; in experiment [3], greater than 100 µM; in experiment [4], greater than 100 µM; in [5], greater than 100 µM; in [6], greater than 75.7 µM. Further, the TGI in experiment [7], in experiment [8] and in experiment [9] was greater than 100 µM in each case.
For the molecule `CN(C)CCn1c(=O)c2ccc(NCCNCCO)c3c(=O)c4cc(O)ccc4n(c1=O)c23`, the TGI was 6.53 µM in experiment [1]; 2.18 µM in experiment [2]; 13.3 µM in experiment [3]; 1.17 µM in [4]; 6.23 µM in experiment [5]; 4.56 µM in experiment [6]. Further, the TGI in [7] amounted to 4.61 µM; in experiment [8], 25.7 µM; in experiment [9], 4.97 µM.
Take `C/C(=C/CC[C@](C)(OC1OC(CO)C(O)C(O)C1O)[C@H]1CC[C@]2(C)[C@@H]1CC[C@@H]1[C@@]3(C)CC[C@H](O)C(C)(C)[C@@H]3C[C@H](O)[C@]12C)CO` (stereo partly drawn): the TGI in experiment [1] is greater than 100 µM; in experiment [3], 60.4 µM; in experiment [4], 53.6 µM; in experiment [5], greater than 100 µM; in experiment [6], greater than 100 µM; in [7] it was 49.9 µM. In addition, the TGI in experiment [8] and in experiment [9] was greater than 100 µM each time.
Take `COc1ccccc1OC/C(N=Cc1ccncc1)=N/NC(=O)c1ccncc1`: the TGI in [1], in experiment [2], in experiment [3], in experiment [4], in [5] and in [6] was greater than 100 µM in each case. Moreover, the TGI in experiment [7], in experiment [8] and in experiment [9] was greater than 100 µM throughout.
Consider `CC(=O)Oc1ccc2c(c1)c1c(OC(C)=O)c3ccccc3c(OC(C)=O)c1n2Cc1cccc(C)c1`, for which the TGI was greater than 100 µM in [1]; 84.2 µM in experiment [2]; greater than 100 µM in experiment [3]; greater than 100 µM in experiment [4]; greater than 100 µM in experiment [5]; 33.5 µM in experiment [6]. Further, the TGI in [7] was greater than 100 µM; in experiment [8], 70.6 µM; in experiment [9], greater than 100 µM.
Consider `COc1cc(O)c2c(c1)C(O)C(O)CC1OC1C(=O)/C=C/CC(C)OC2=O` (stereo not drawn), for which the TGI in experiment [1] is 8.31 µM; in experiment [2], 16.7 µM; in experiment [3], 30.4 µM; in experiment [4] it was 17.2 µM; in experiment [5], 16.3 µM; in experiment [6], 2.72 µM. In addition, the TGI in experiment [7] is greater than 23.4 µM; in [8], 27.3 µM; in [9], greater than 72.2 µM.
In the case of `CN1C/C(=C\c2ccccc2[N+](=O)[O-])C(=O)/C(=C/c2ccccc2[N+](=O)[O-])C1`, the GI50 in [1] was 0.86 µM and 0.254 µM; in [2], 2.26 µM; in [3], 1.01 µM and 0.354 µM; in experiment [4], 0.308 µM; in experiment [7], 0.239 µM. The TGI in experiment [1] was 3.1 µM and 0.706 µM; in experiment [2], 5.52 µM and 3.01 µM; in [3] it was 4.47 µM and 2.08 µM; in [4] it was 1.02 µM and 0.572 µM; in experiment [5], 1.94 µM and 3.04 µM; in [6] it was 2.75 µM and 2.61 µM. For the same molecule, the TGI was 0.632 µM and 0.41 µM in experiment [7]; 4.45 µM and 4.72 µM in [8]; 6.66 µM and 3.62 µM in experiment [9].
Turning to `CC(C)[Si]1(C(C)C)OCC2OC(n3cnc4c(N)ncnc43)C(N)C2O[Si](C(C)C)(C(C)C)O1` (stereo not drawn), the TGI in experiment [1] is 30.7 µM; in experiment [2] it was 14.5 µM; in experiment [3], 30.5 µM; in [4], 7.84 µM; in experiment [5], 8.56 µM; in [6], 33 µM. The figures for the TGI in [7], in [8] and in experiment [9] were greater than 28.2 µM, 45.5 µM and 31.4 µM, respectively.
With `CC(=O)c1nccc2c1c(C)nc1ccccc12`, the TGI in experiment [1], in experiment [3], in experiment [4], in experiment [5], in experiment [6] and in [7] was greater than 100 µM in each case. Further, the TGI in experiment [8] and in [9] was greater than 100 µM in each case.
With `COc1cccc(N2N=C3c4ccccc4-n4c(nc5ccccc54)C3C2N)c1` (stereo not drawn), the TGI in experiment [1], in experiment [2], in [3], in experiment [5], in experiment [6] and in experiment [7] was greater than 100 µM throughout. Besides, the TGI in experiment [8] and in [9] was greater than 100 µM in each case.
Take `CC(=O)Nc1ncc2c(n1)-c1ccccc1OC2`: the TGI in experiment [1], in [3], in experiment [4], in [5], in [6] and in experiment [7] was greater than 100 µM in each case. Further, the TGI in [8] and in experiment [9] was greater than 100 µM in each case.
Consider `O=C(O)c1ccccc1-c1ccccc1C(=O)c1ccccc1`, for which the TGI in [1], in [3], in experiment [4], in experiment [5], in experiment [6] and in [7] was greater than 100 µM in each case. In addition, the TGI in [8] and in experiment [9] was greater than 100 µM each time.

The record behind these values is PubChem BioAssay (NCI).
